Reference: patent publication US20070053866A1, “IN-CAN AND DRY COATING ANTIMICROBIAL COMPOSITIONS HAVING HYDROXY ANALOGS OF METHIONINE AND DERIVATIVES” (NOVUS INTERNATIONAL INC., priority 2005, published 2007)

Experiments:
[1] = test system: Penicillium and Aspergilus sp.; experiment: Dry-film alkyd paint mold and mildew resistance in environmental chamber (ASTM D 3273-94, ASTM D 3274-95); type: cell-based; conditions: scale of 1 to 10, 10 being totally free of growth; for ASTM RATING Mean: One month in the environmental chamber, added at 1% to alkyd paint; for ASTM Rating: Three months of continuous alkyd paint testing in the environmental chamber
Experimental: Accelerated testing of biocides in paints is conducted using environmental chambers maintained at constant high humidity (85-88% relative humidity) and temperature (30-33° C.). The chamber was primed with spores of Penicillium and Aspergilus sp. to accelerate the formation of fungal organisms. Wood panels are coated with the experimental paints and placed inside the chamber for a period of 4-12 weeks. The relative resistance of the paint to the mold and mildew inside the chamber was evaluated subjectively from a scale of 1 to 10, with 10 being totally free of growth. This test is described in more detail in ASTM D 3273-94 and ASTM D 3274-95.
Paint preservatives listed in table 5 below were added at 1% to alkyd paint formulations. HMTBA-Zn is a zinc metal chelate as described above; HMTBA-Cu is a copper metal chelate as described above; HMTBA-Mn is a manganese metal chelate as described above; BIOX-S is 6-ethoxy-1,2-dihydro-2,2,4-trimethylquinoline; BIOX-A is 88 wt. % HMTBA; BIOX-ASL contains 35 wt. % of 2-hydroxy-4-methylthio butanoic acid (88%), 45 wt. % of formic acid, 10 wt. % phosphoric acid and 10 wt. % lactic acid; and BIOX-EZ/7030 contains 70 wt. % of 6-ethoxy-1,2-dihydro-2,2,4-trimethylquinoline and 30 wt. % of HMTBA-Zn metal chelate. Troy663 is a positive control.

[2] = test system: Pseudomonas aeruginosa ATCC 10145 and Enterobacter aerogenes ATCC 13048; experiment: In-can paint preservation: bacterial resistance rating of inoculated water borne paint; type: cell-based; set-up: key: 0: no bacterial recovery; trace of contamination (1 to 9 colonies); 2: light contamination (10 to 99 colonies); 3: moderate contamination (>100 distinct colonies); 4: heavy contamination (continuous smear of growth)
Experimental: Paint preservatives listed in the tables below were added at the listed concentrations to water borne paint formulations. BIOX-ASL contains 35 wt. % of 2-hydroxy-4-methylthio butanoic acid (88%), 45 wt. % of formic acid, 10 wt. % phosphoric acid and 10 wt. % lactic acid; BIOX-AWD contains 40 wt. % of 2-hydroxy-4-methylthio butanoic acid, 40 wt. % of formic acid and 20 wt. % propionic acid; BIOX-ASDA contains 36.4 wt. % of calcium bis(2-hydroxy-4-methylthiobuanoate), 41.9 wt. % of fumaric acid, 20 wt. % of benzoic acid, 0.9 wt. % flow aid and 0.73 wt. % other additives; HTA and BIOBAN BP30 are commercially available; BIOX-Z is a HMTBA-Zn metal chelate, and BIOX-C is a HMTBA-Cu metal chelate.
The paints were inoculated with Pseudomonas aeruginosaATCC 10145 and Enterobacter aerogenes ATCC 13048 at a level of 0.1% inoculum, and paints were then sampled during the next seven days to determine the number of bacterial colonies surviving in the paint. The efficacy of the added antimicrobial agents were given a numeric rating based on the following system: (0) for no bacterial recovery, (1) for trace of contamination (1 to 9 colonies), (2) for light contamination (10 to 99 colonies), (3) for moderate contamination (>100 distinct colonies) and (4) for heavy contamination (continuous smear of growth).
The paints were then inoculated at a level of 1.0% inoculum and were again sampled during the next seven days to determine the number of bacterial colonies surviving in the paint. These ratings were also plotted versus day after inoculation for each concentration of BIOX-ASL, BIOX-AWD, BIOX-ASDA, and BIOX-C, and are presented in FIGS. 1-4. The minimum inhibitory concentration (MIC) of each BIOX biocide was much lower after one week than those of commercially available products, as shown in FIG. 5.

[3] = Table 1, week 1, 0.1% inoculum, 5 ppm in water borne paint
[4] = Table 1, week 1, 0.1% inoculum, 25 ppm in water borne paint
[5] = Table 2, week 2, 1.0% inoculum, 5 ppm in water borne paint
[6] = Table 2, week 2, 1.0% inoculum, 25 ppm in water borne paint
[7] = Table 3, Week 1: 0.1% Inoculum, sample at 1.0%
[8] = Table 3, Week 2: 1.0% Inoculum, sample at 1.0%
[9] = Table 4, Week 1: 0.1% Inoculum, sample at 1.0% (Bioban BP30: concentration not given)
[10] = Table 4, Week 2: 1.0% Inoculum, sample at 1.0%

Which “ASTM RATING Mean” value [1] does the source give for `CSCCC(O)C(=O)[O-].CSCCC(O)C(=O)[O-].[Cu+2]` (stereo not drawn) [BIOX-C, copper 2-hydroxy-4-methylthiobutanoate chelate] here?
Its value is 9.3.

What about the “ASTM Rating” value [1] of the same compound?
Its value is 9.0 ± 0.6.

And the “Bacteria Resistance Rating, Before Inoculation” value [2, 3]?
Its value is 0.

And the “Bacteria Resistance Rating, Day 1” value [2, 3]?
The value was 0.

And the “Bacteria Resistance Rating, Day 2” value [2, 3]?
Its value is 0.

What about the “Bacteria Resistance Rating, Day 5” value [2, 3] of the same compound?
The value was 0.

And the “Bacteria Resistance Rating, Day 7” value [2, 3]?
The value was 0.

And the “Bacteria Resistance Rating, Initial Inoculation” value [2, 3]?
The value was 4.

What about the “Bacteria Resistance Rating, Before Inoculation” value [2, 4] of the same compound?
Its value is 0.

And the “Bacteria Resistance Rating, Day 1” value [2, 4]?
The value was 0.

And the “Bacteria Resistance Rating, Day 2” value [2, 4]?
The value was 0.

What about the “Bacteria Resistance Rating, Day 5” value [2, 4] of the same compound?
The value was 0.

What about the “Bacteria Resistance Rating, Day 7” value [2, 4] of the same compound?
Its value is 0.

And the “Bacteria Resistance Rating, Initial Inoculation” value [2, 4]?
The value was 4.

What about the “Bacteria Resistance Rating, Before Inoculation” value [2, 5] of the same compound?
Its value is 0.

What about the “Bacteria Resistance Rating, Day 1” value [2, 5] of the same compound?
The value was 3 (moderate contamination (>100 distinct colonies)).

And the “Bacteria Resistance Rating, Day 2” value [2, 5]?
The value was 1 (trace of contamination (1 to 9 colonies)).

What about the “Bacteria Resistance Rating, Day 5” value [2, 5] of the same compound?
Its value is 0.

What about the “Bacteria Resistance Rating, Day 7” value [2, 5] of the same compound?
Its value is 0.

What about the “Bacteria Resistance Rating, Initial Inoculation” value [2, 5] of the same compound?
Its value is 4.

What about the “Bacteria Resistance Rating, Before Inoculation” value [2, 6] of the same compound?
The value was 0.

And the “Bacteria Resistance Rating, Day 1” value [2, 6]?
The value was 3 (moderate contamination (>100 distinct colonies)).

What about the “Bacteria Resistance Rating, Day 2” value [2, 6] of the same compound?
The value was 0.

What about the “Bacteria Resistance Rating, Day 5” value [2, 6] of the same compound?
Its value is 0.

What about the “Bacteria Resistance Rating, Day 7” value [2, 6] of the same compound?
The value was 0.

And the “Bacteria Resistance Rating, Initial Inoculation” value [2, 6]?
Its value is 4.

What about the “Bacterial Resistance Rating, Day 1” value [2, 7] of the same compound?
Its value is 2 (light contamination (10 to 99 colonies)).

And the “Bacterial Resistance Rating, Day 2” value [2, 7]?
Its value is 0.

What about the “Bacterial Resistance Rating, Day 5” value [2, 7] of the same compound?
The value was 0.

And the “Bacterial Resistance Rating, Day 7” value [2, 7]?
The value was 0.

And the “Bacterial Resistance Rating, Initial” value [2, 7]?
The value was 4.

And the “Bacterial Resistance Rating, Day 1” value [2, 8]?
The value was 0.

What about the “Bacterial Resistance Rating, Day 2” value [2, 8] of the same compound?
Its value is 0.

And the “Bacterial Resistance Rating, Day 5” value [2, 8]?
Its value is 0.

And the “Bacterial Resistance Rating, Day 7” value [2, 8]?
The value was 0.

What about the “Bacterial Resistance Rating, Initial” value [2, 8] of the same compound?
The value was 4.

What about the “Bacterial Resistance Rating, Day 1” value [2, 9] of the same compound?
The value was 0.

What about the “Bacterial Resistance Rating, Day 2” value [2, 9] of the same compound?
Its value is 0.

And the “Bacterial Resistance Rating, Day 5” value [2, 9]?
The value was 0.

And the “Bacterial Resistance Rating, Day 7” value [2, 9]?
The value was 0.

What about the “Bacterial Resistance Rating, Initial” value [2, 9] of the same compound?
The value was 4.

And the “Bacterial Resistance Rating, Day 1” value [2, 10]?
Its value is 0.

And the “Bacterial Resistance Rating, Day 2” value [2, 10]?
Its value is 0.

And the “Bacterial Resistance Rating, Day 5” value [2, 10]?
The value was 0.

And the “Bacterial Resistance Rating, Initial” value [2, 10]?
Its value is 4.

For `CSCCC(O)C(=O)[O-].CSCCC(O)C(=O)[O-].[Zn+2]` (stereo not drawn) [BIOX-Z], which “ASTM RATING Mean” value [1] is on record?
The value was 8.7.

What about the “Bacterial Resistance Rating, Day 1” value [2, 7] of the same compound?
Its value is 0.

And the “Bacterial Resistance Rating, Day 2” value [2, 7]?
Its value is 0.

And the “Bacterial Resistance Rating, Day 5” value [2, 7]?
The value was 0.

What about the “Bacterial Resistance Rating, Day 7” value [2, 7] of the same compound?
The value was 0.

And the “Bacterial Resistance Rating, Initial” value [2, 7]?
Its value is 4.

What about the “Bacterial Resistance Rating, Day 1” value [2, 8] of the same compound?
The value was 1 (trace of contamination (1 to 9 colonies)).

And the “Bacterial Resistance Rating, Day 2” value [2, 8]?
Its value is 0.

And the “Bacterial Resistance Rating, Day 5” value [2, 8]?
Its value is 0.

What about the “Bacterial Resistance Rating, Day 7” value [2, 8] of the same compound?
The value was 0.

What about the “Bacterial Resistance Rating, Initial” value [2, 8] of the same compound?
Its value is 4.

What about the “Bacterial Resistance Rating, Day 1” value [2, 9] of the same compound?
Its value is 1 (trace of contamination (1 to 9 colonies)).

What about the “Bacterial Resistance Rating, Day 2” value [2, 9] of the same compound?
Its value is 0.

What about the “Bacterial Resistance Rating, Day 5” value [2, 9] of the same compound?
The value was 0.

What about the “Bacterial Resistance Rating, Day 7” value [2, 9] of the same compound?
The value was 0.

And the “Bacterial Resistance Rating, Initial” value [2, 9]?
Its value is 4.

And the “Bacterial Resistance Rating, Day 1” value [2, 10]?
The value was 1 (trace of contamination (1 to 9 colonies)).

What about the “Bacterial Resistance Rating, Day 2” value [2, 10] of the same compound?
Its value is 0.

What about the “Bacterial Resistance Rating, Day 5” value [2, 10] of the same compound?
The value was 0.

What about the “Bacterial Resistance Rating, Initial” value [2, 10] of the same compound?
Its value is 4.

How did the “ASTM RATING Mean” value [1] turn out when `CSCCC(O)C(=O)O` (stereo not drawn) [BIOX-A, 2-hydroxy-4(methylthio)butanoic acid] was run?
Its value is 9.2.

How did the “ASTM RATING Mean” value [1] turn out when `CSCCC(O)C(=O)[O-].CSCCC(O)C(=O)[O-].[Mn+2]` (stereo not drawn) [HMTBA-Mn] was run?
Its value is 7.8.

`[Cu+2].[O-]n1ccccc1=S.[O-]n1ccccc1=S` [COPPER OMADINE, reference compound] was tested. Which “ASTM Rating” value [1] did it give?
The value was 9.2 ± 0.4.

`C1N2CN3CN1CN(C2)C3` [HTA, reference compound] was tested. Which “Bacterial Resistance Rating, Day 1” value [2, 7] did it give?
The value was 4.

What about the “Bacterial Resistance Rating, Day 2” value [2, 7] of the same compound?
The value was 4.

What about the “Bacterial Resistance Rating, Day 5” value [2, 7] of the same compound?
The value was 4.

And the “Bacterial Resistance Rating, Day 7” value [2, 7]?
Its value is 4.

What about the “Bacterial Resistance Rating, Initial” value [2, 7] of the same compound?
The value was 4.

Which “ASTM RATING Mean” value [1] does the source give for `CCOc1ccc2c(c1)C(C)=CC(C)(C)N2` [BIOX-S, 6-ethoxy-1,2-dihydro-2,2,4-trimethylquinoline] here?
The value was 9.2.

Which “ASTM Rating” value [1] does the source give for `c1cc[n+]2c(c1)[S][Zn-2]1([O]2)[O][n+]2ccccc2[S]1` [ZINC-OMADINE, reference compound] here?
Its value is 8.3 ± 0.8.
